Legend:
[1] = test system: HIV-1 laboratory strain NL4.3; experiment: Viral p24 antigen release, HIV-1 NL4.3 in MT-2 cells; assay type: cell-based; conditions: for effect on release of antigen p24: 0.5-50.0 mM tested, concentration not given; for reduction of production of p24: day 7 post-infection
[2] = test system: HIV-1 M-tropic strain Ba-L; experiment: Replication of M-tropic strain Ba-L in human peripheral blood monocytes (p24 release); conditions: 0.5, 5 and 25 mM, MOI 0.001
[3] = test system: HIV-1 T-tropic envelope protein of HXB2; assay type: cell-based; conditions: virions with HIV HXB2 envelope protein, MT-2 cells
[4] = test system: HIV-1 laboratory strain NL4.3; experiment: Syncytia formation in MT-2 cells infected with HIV-1 NL4.3; assay type: cell-based
HIV-2 isolate CBL23 = experiment: Replication of HIV-2 clinical isolate CBL23 in MT-2 cells; assay type: cell-based; conditions: single oligosaccharide
Protocol: The effect of the oligosaccharides was also tested on the replication of CLB23, a T -tropic clinical isolate of HIV-2.

[5] = test system: HIV-1 clinical isolate 1936; experiment: Replication of T-tropic clinical isolate 1936 in MT-2 cells (p24 release); assay type: cell-based
[6] = test system: vesicular stomatis virus (VSV) G protein; assay type: cell-based, vesicular stomatitis virus
[7] = test system: HIV-1 clinical isolate ME46; experiment: Replication of T-tropic clinical isolate ME46 in MT-2 cells (p24 release)
Text: MT-2 cells were infected as described above, and the course of infection was followed by the release of p24.

HIV-1 (strain NL4.3) = experiment: HIV-1 replication in vivo in NOD-SCID huPBL mice (p24, viral load in peritoneal wash)

| Structure (SMILES) | effect on release of antigen p24 [1] | inhibition of replication of strain Ba-L (p24 release) [2] | expression of the luciferase reporter [3] | effect on formation of syncytia ([4]; 0.5-50.0 mM tested, concentration not given) | reduction of production of p24 ([1]; 5 mM lactose) [fold] | inhibition of replication of HIV-2 isolate CBL23 (HIV-2 isolate CBL23) | effect on replication of isolate 1936 ([5]; 25 mM) | expression of the luciferase reporter [6] | effect on replication of isolate ME46 ([7]; 15 mM) | inhibition of replication of isolate ME46 ([7]; 25 mM) | formation of syncytia (number and size) ([4]; 25 mM, MT-2 cells, NL4.3) | size of syncytia (number of nuclei) ([4]; concentrations lower than 25 mM) | release of antigen p24 ([1]; 5 mM or lower) | reduction of production of p24 ([1]; 25 mM globotriose) [fold] | release of antigen p24 ([1]; 25 mM, effect maximum at days 3 and 7, recovered at day 10 post-infection) | inhibition of replication of isolate 1936 ([5]; 5 mM and above) | HIV-1 replication (p24 and viral load) (HIV-1 (strain NL4.3); globotriose 15 mg/mouse i.p. single dose, days 2 and 6 post infection) | HIV-1 replication (p24 and viral load) (HIV-1 (strain NL4.3); repeat experiment, single dose at beginning of infection, day 6) | inhibition of replication of isolate ME46 ([7]; 5 mM and above) |
| --- | --- | --- | --- | --- | --- | --- | --- | --- | --- | --- | --- | --- | --- | --- | --- | --- | --- | --- | --- |
| CC(=O)N[C@H]1[C@H](O[C@H]2[C@@H](O)[C@@H](CO)O[C@@H](O[C@H]3[C@H](O)[C@@H](O)C(O)O[C@@H]3CO)[C@@H]2O)O[C@H](CO)[C@@H](O)[C@@H]1O[C@@H]1O[C@H](CO)[C@H](O)[C@H](O)[C@H]1O (stereo partly shown) [lacto-N-tetraose, reference compound] | ineffective | ineffective |  |  |  |  |  |  |  |  |  |  |  |  |  |  |  |  |  |
| OC[C@H]1O[C@@H](O[C@H]2[C@H](O)[C@@H](O)[C@H](O)O[C@@H]2CO)[C@H](O)[C@@H](O)[C@H]1O [lactose, o-β-D-galactopyranosyl-(1-4)-β-D-glucopyranose] | less potent than globotriose | ineffective | inhibited | weaker than that exhibited by globotriose | 2 | basically non-effective | practically did not affect | no effect was observed | minor effect | ten-fold |  |  |  |  |  |  |  |  |  |
| OC[C@H]1O[C@H](O[C@@H]2[C@H](O)[C@@H](O)[C@H](O[C@H]3[C@H](O)[C@@H](O)C(O)O[C@@H]3CO)O[C@@H]2CO)[C@H](O)[C@@H](O)[C@H]1O (stereo partly drawn) [globotriose, galactose α1-4galactose β1-4glucose] |  | did not inhibit | inhibited |  |  | much weaker than for the HIV-1 isolates |  | no effect was observed except for the highest concentration |  |  | completely inhibited | decreased | not at 5 mM or lower | 5 | inhibited | more than ten-fold | strongly inhibited | diminished replication | more than ten-fold |
